Measured values: paper PMC4138103 (PLoS ONE, 2014)
Where two headings read alike, the source gives them in different places.

Tests used:
Sprague-Dawley rats = assay: Serum steroids and gonadotropins; type: in vivo, Rattus norvegicus; conditions: for CED, Serum FSH / CED, Serum LH / CED-L, Serum FSH / CED-L, Serum LH: adipose tissue concentration based; for Emax: Rattus norvegicus; for Estradiol / LH / Progesterone / FSH / Testosterone: group mean; for Serum FSH, CED / Serum FSH, CED-L / Serum LH, CED / Serum LH, CED-L: total dose based
Procedure: Serum testosterone, estradiol and progesterone concentrations were measured by time-resolved immunofluorometric assay, DELFIA (PerkinElmer Life and Analytical Sciences, Turku, Finland) after diethyl ether (Merck KGaA, Darmstadt, Germany) extraction. Ether-extracted serum samples were reconstituted to DELFIA Diluent II buffer (PerkinElmer Life and Analytical Sciences, Turku, Finland) and used for analysis. The sensitivity of the assay was 100 pg/ml for testosterone, 13.6 pg/ml for estradiol and 250 pg/ml for progesterone. The intra- and interassay coefficients of variation (CV) were below 6 and 12%, respectively. To enhance the sensitivity, commercial tracer and antiserum were additionally diluted 5∶8 with assay buffer (PerkinElmer Life and Analytical Sciences, Turku, Finland) in testosterone assay. For estradiol and progesterone, dilution rate was 1∶2. Serum follicle stimulating hormone (FSH) and luteinizing hormone (LH) levels were determined from unextracted samples by DELFIA as described previously, [31].
Data were also analyzed using the BMD method, which is based on dose-response modeling of the full data set using a nested family of exponential and Hill models. The analyses were done on data of males and females combined, using sex as a covariate. […] In that case, different Critical Effect Doses (CEDs) and CEDs at the lowest bound of the confidence interval (CED-L) were generated for each sex. If no difference between sexes is detected, a CED and CED-Ls for the combined data is generated. However, this was also done if the curve fits are close, and separate analyses for males and females were then performed manually. CEDs and CED-Ls were calculated at the predefined Critical Effect Size (CES) of 5% (EFSA standard) or 10%.

Liver enzymes = test system: Liver enzymes; design: method as in Roos et al., 2011; conditions: 2011, cited from earlier work; for CED, CYP3A1 mRNA / CED-L, CYP3A1 mRNA: model E4; for CED, CYP3A1 mRNA / CED-L, CYP3A1 mRNA / CED, CYP2B1 mRNA / CED-L, CYP2B1 mRNA: adipose tissue concentration based, enzyme induction data ref Roos et al.; for CED, CYP2B1 mRNA / CED-L, CYP2B1 mRNA: model E5; for CYP2B1 mRNA, CED / CYP2B1 mRNA, CED-L / CYP3A1 mRNA, CED / CYP3A1 mRNA, CED-L: total dose based, ref Roos et al.
[1] = females, total dose 10 mg/kg bw
[2] = females, total dose 30 mg/kg bw
[3] = females, total dose 100 mg/kg bw
[4] = females, total dose 300 mg/kg bw
[5] = females, total dose 1000 mg/kg bw
[6] = females, total dose 1700 mg/kg bw
[7] = males, total dose 1000 mg/kg bw
[8] = males, total dose 1700 mg/kg bw

## Clc1cc(Cl)c(-c2cc(Cl)c(Cl)c(Cl)c2Cl)cc1Cl [PCB 180, 2,2′,3′,4,4′,5,5′-heptachlorobiphenyl]
Sprague-Dawley rats; M, CES 5%, model E2
  CED, Serum FSH: 1600 µg/g lipid
  CED, Serum LH: 1160 µg/g lipid
  CED-L, Serum FSH: 1116 µg/g lipid
  CED-L, Serum LH: 648 µg/g lipid
Sprague-Dawley rats; M, CES 10%, model E2
  CED, Serum FSH: 3290 µg/g lipid
  CED, Serum LH: 2390 µg/g lipid
  CED-L, Serum FSH: 2292 µg/g lipid
  CED-L, Serum LH: 1331 µg/g lipid
Sprague-Dawley rats; males, controls vs high dose, fitted model, read-out: Serum FSH, Maximum response
  Emax: -20.6%
Sprague-Dawley rats; males, controls vs high dose, fitted model, read-out: Serum LH, Maximum response
  Emax: -27.9%
Sprague-Dawley rats; M, model E2, controls vs high dose according to the fitted model, read-out: Maximum response, Serum FSH
  Emax: -21.1%
Sprague-Dawley rats; M, model E2, controls vs high dose according to the fitted model, read-out: Maximum response, Serum LH
  Emax: -27.8%
Sprague-Dawley rats; females, total dose 3 mg/kg bw
  Estradiol: 20.2 pg/mL
  LH: 1.51 ng/mL
  Progesterone: 37.1 ng/mL
Sprague-Dawley rats; [1]
  Estradiol: 23.6 pg/mL
  LH: 2.57 ng/mL
  Progesterone: 18.0 ng/mL
Sprague-Dawley rats; [2]
  Estradiol: 18.8 pg/mL
  LH: 1.81 ng/mL
  Progesterone: 22.3 ng/mL
Sprague-Dawley rats; [3]
  Estradiol: 21.4 pg/mL
  LH: 1.96 ng/mL
  Progesterone: 33.0 ng/mL
Sprague-Dawley rats; [4]
  Estradiol: 15.4 pg/mL
  LH: 2.02 ng/mL
  Progesterone: 27.5 ng/mL
Sprague-Dawley rats; [5]
  Estradiol: 17.4 pg/mL
  LH: 1.39 ng/mL
  Progesterone: 27.7 ng/mL
Sprague-Dawley rats; [6]
  Estradiol: 17.6 pg/mL
  LH: 1.77 ng/mL
  Progesterone: 22.7 ng/mL
Sprague-Dawley rats; males
  FSH, Dose response: D, T
  LH, Dose response: D, T
Sprague-Dawley rats; males, CES 5%
  Serum FSH, CED: 377 mg/kg bw
  Serum FSH, CED-L: 263 mg/kg bw
  Serum LH, CED: 266 mg/kg bw
  Serum LH, CED-L: 150 mg/kg bw
Sprague-Dawley rats; males, CES 10%
  Serum FSH, CED: 775 mg/kg bw
  Serum FSH, CED-L: 540 mg/kg bw
  Serum LH, CED: 547 mg/kg bw
  Serum LH, CED-L: 309 mg/kg bw
Sprague-Dawley rats; males, total dose 3 mg/kg bw
  FSH: 8.23 ng/mL
  LH: 1.23 ng/mL
  Testosterone: 2.35 ng/mL
Sprague-Dawley rats; males, total dose 10 mg/kg bw
  FSH: 8.54 ng/mL
  LH: 0.91 ng/mL
  Testosterone: 2.66 ng/mL
Sprague-Dawley rats; males, total dose 30 mg/kg bw
  FSH: 7.44 ng/mL
  LH: 0.99 ng/mL
  Testosterone: 1.92 ng/mL
Sprague-Dawley rats; males, total dose 100 mg/kg bw
  FSH: 7.88 ng/mL
  LH: 0.84 ng/mL
  Testosterone: 3.21 ng/mL
Sprague-Dawley rats; males, total dose 300 mg/kg bw
  FSH: 7.66 ng/mL
  LH: 1.03 ng/mL
  Testosterone: 2.04 ng/mL
Sprague-Dawley rats; [7]
  FSH: 7.49 ng/mL
  LH: 0.77 ng/mL
  Testosterone: 2.18 ng/mL
Sprague-Dawley rats; [8]
  FSH: 6.49 ng/mL
  LH: 0.75 ng/mL
  Testosterone: 1.85 ng/mL
Liver enzymes; F, CES 5%
  CED, CYP3A1 mRNA: 6.75 µg/g lipid
  CED-L, CYP3A1 mRNA: 3.19 µg/g lipid
  CED, CYP2B1 mRNA: 12.4 µg/g lipid
  CED-L, CYP2B1 mRNA: 5.74 µg/g lipid
Liver enzymes; F, CES 10%
  CED, CYP3A1 mRNA: 13.5 µg/g lipid
  CED-L, CYP3A1 mRNA: 6.39 µg/g lipid
  CED, CYP2B1 mRNA: 15.5 µg/g lipid
  CED-L, CYP2B1 mRNA: 7.76 µg/g lipid
Liver enzymes; M, CES 5%
  CED, CYP3A1 mRNA: 5.88 µg/g lipid
  CED-L, CYP3A1 mRNA: 3.63 µg/g lipid
  CED, CYP2B1 mRNA: 1.52 µg/g lipid
  CED-L, CYP2B1 mRNA: 0.584 µg/g lipid
Liver enzymes; M, CES 10%
  CED, CYP3A1 mRNA: 11.8 µg/g lipid
  CED-L, CYP3A1 mRNA: 7.26 µg/g lipid
  CED, CYP2B1 mRNA: 2.15 µg/g lipid
  CED-L, CYP2B1 mRNA: 0.895 µg/g lipid
Liver enzymes; females, CES 5%
  CYP2B1 mRNA, CED: 1.70 mg/kg bw
  CYP2B1 mRNA, CED-L: 0.90 mg/kg bw
  CYP3A1 mRNA, CED: 1.50 mg/kg bw
  CYP3A1 mRNA, CED-L: 0.70 mg/kg bw
Liver enzymes; females, CES 10%
  CYP2B1 mRNA, CED: 2.20 mg/kg bw
  CYP2B1 mRNA, CED-L: 1.20 mg/kg bw
  CYP3A1 mRNA, CED: 2.90 mg/kg bw
  CYP3A1 mRNA, CED-L: 1.40 mg/kg bw
Liver enzymes; males, CES 5%
  CYP2B1 mRNA, CED: 0.70 mg/kg bw
  CYP2B1 mRNA, CED-L: 0.40 mg/kg bw
  CYP3A1 mRNA, CED: 1.40 mg/kg bw
  CYP3A1 mRNA, CED-L: 0.90 mg/kg bw
Liver enzymes; males, CES 10%
  CYP2B1 mRNA, CED: 1.00 mg/kg bw
  CYP2B1 mRNA, CED-L: 0.50 mg/kg bw
  CYP3A1 mRNA, CED: 2.90 mg/kg bw
  CYP3A1 mRNA, CED-L: 1.80 mg/kg bw
